Experimental data taken from US11236081B2, “Crystalline salts of corydalmine” (priority 2018, dated 2022).
Like-named read-outs stand apart in the source and are kept apart here.

Tests used:
[1] = Pharmacokinetic study: plasma concentration and plasma PK parameters after IV/PO dosing (LC-MS/MS, WinNonlin); assay type: in vivo, Male SD Rat; conditions: male SD rat, plasma; for half-life: read-out: T1/2, Mean (converted)
Excerpt: Pharmacokinetic and Brain Penetration Study
Dose formulation processing during dosing: The dose formulations will be kept at room temperature.
Concentrations of Test Article in the plasma samples will be analyzed using a LC-MS/MS method.
WinNonlin (Phoenix™, version 6.1) or other similar software will be used for pharmacokinetic calculations. The following pharmacokinetic parameters will be calculated, whenever possible from the plasma concentration versus time data:
IV administration: T1/2, C0, AUClast, AUCinf, MRTinf, Cl, Vss, Number of Points for Regression.
PO administration: T1/2, Cmax, Tmax, MRTinf, AUCinf, AUClast, F %, Number of Points for Regression.
The pharmacokinetic data will be described using descriptive statistics such as mean, standard deviation.

[2] = Solubility studies in water at 2 hours; assay type: physicochemical
[3] = male, Sprague-Dawley, rat, iv, 3 mg/kg, IV 3 mg/kg, individual rats, read-out: concentration in plasma
[4] = male, Sprague-Dawley, rat, iv, 3 mg/kg, IV 3 mg/kg, mean n=3, read-out: concentration in plasma, Mean
[5] = male, Sprague-Dawley, rat, po, 10 mg/kg, PO 10 mg/kg (equal to freebase), mean n=3, vehicle 20% HP-β-CD in water (POA, freebase) or water (salts), read-out: concentration in plasma, Mean
[6] = male, Sprague-Dawley, rat, po, 10 mg/kg, PO 10 mg/kg (equal to freebase), individual rats, vehicle 20% HP-β-CD in water (POA, freebase) or water (salts), read-out: concentration in plasma

For COc1cc2c(cc1OC)[C@@H]1Cc3ccc(O)c(OC)c3CN1CC2 [Compound (1), l-corydalmine], the “AUC—% Extrap_obs, Mean” value ([1]; PO 10 mg/kg (equal to freebase), mean n=3, vehicle 20% HP-β-CD in water (POA, freebase) or water (salts)) was 19.8%, the AUC(0-inf) ([1]; male, SD, rat, iv, 3 mg/kg, IV 3 mg/kg, individual rats, read-out: AUCInf) was 950 ng·h/mL and the AUC(0-t) ([1]; male, SD, rat, iv, 3 mg/kg, IV 3 mg/kg, individual rats, read-out: AUClast) was 937 ng·h/mL. The MRT inf ([1]; male, SD, rat, iv, 3 mg/kg, IV 3 mg/kg, individual rats, read-out: MRTInf_obs) was 1.09 h, the AUC(0-inf) ([1]; male, SD, rat, iv, 3 mg/kg, IV 3 mg/kg, mean n=3, read-out: AUCInf, Mean) was 1020 ng·h/mL and the AUC(0-t) ([1]; male, SD, rat, iv, 3 mg/kg, IV 3 mg/kg, mean n=3, read-out: AUClast, Mean) was 1000 ng·h/mL. It also gave an MRT inf ([1]; male, SD, rat, iv, 3 mg/kg, IV 3 mg/kg, mean n=3, read-out: MRTInf_obs, Mean) of 1.23 h, an AUC(0-inf) ([1]; male, SD, rat, po, 10 mg/kg, PO 10 mg/kg (equal to freebase), individual rats, vehicle 20% HP-β-CD in water (POA, freebase) or water (salts), read-out: AUCInf) of 1490 ng·h/mL and an AUC(0-t) ([1]; male, SD, rat, po, 10 mg/kg, PO 10 mg/kg (equal to freebase), individual rats, vehicle 20% HP-β-CD in water (POA, freebase) or water (salts), read-out: AUClast) of 615 ng·h/mL. The Tmax ([1]; male, SD, rat, po, 10 mg/kg, PO 10 mg/kg (equal to freebase), individual rats, vehicle 20% HP-β-CD in water (POA, freebase) or water (salts), read-out: Tmax) was 0.5 h, the AUC(0-inf) ([1]; male, SD, rat, po, 10 mg/kg, PO 10 mg/kg (equal to freebase), mean n=3, vehicle 20% HP-β-CD in water (POA, freebase) or water (salts), read-out: AUCInf, Mean) was 1080 ng·h/mL and the AUC(0-t) ([1]; male, SD, rat, po, 10 mg/kg, PO 10 mg/kg (equal to freebase), mean n=3, vehicle 20% HP-β-CD in water (POA, freebase) or water (salts), read-out: AUClast, Mean) was 788 ng·h/mL. The Cmax ([1]; male, SD, rat, po, 10 mg/kg, PO 10 mg/kg (equal to freebase), mean n=3, vehicle 20% HP-β-CD in water (POA, freebase) or water (salts), read-out: Cmax, Mean) was 202 ng/mL, the MRT inf ([1]; male, SD, rat, po, 10 mg/kg, PO 10 mg/kg (equal to freebase), mean n=3, vehicle 20% HP-β-CD in water (POA, freebase) or water (salts), read-out: MRTInf_obs, Mean) was 7.84 h and the half-life ([1]; male, SD, rat, po, 10 mg/kg, PO 10 mg/kg (equal to freebase), mean n=3, vehicle 20% HP-β-CD in water (POA, freebase) or water (salts)) was 4.9 h. For the same molecule, the Tmax ([1]; male, SD, rat, po, 10 mg/kg, PO 10 mg/kg (equal to freebase), mean n=3, vehicle 20% HP-β-CD in water (POA, freebase) or water (salts), read-out: Tmax, Mean) was 0.417 h, the concentration at 0.083 h [1, 3] was 1420 ng/mL and the concentration at 0.083 h [1, 4] was 1480 ng/mL. For the same molecule, the concentration at 0.25 h [1, 3] was 974 ng/mL, the concentration at 0.25 h [1, 4] was 976 ng/mL and the concentration at 0.5 h [1, 3] was 401 ng/mL. For the same molecule, the concentration at 0.5 h [1, 4] was 478 ng/mL, the concentration at 1 h [1, 3] was 192 ng/mL and the concentration at 1 h [1, 4] was 191 ng/mL. It also gave a concentration at 2 h [1, 3] of 63.3 ng/mL, a concentration at 2 h [1, 4] of 68.4 ng/mL and a concentration at 4 h [1, 4] of 30.6 ng/mL. It also gave a concentration at 8 h [1, 4] of 6.38 ng/mL, a concentration at 24 h [1, 3] of 0.5 ng/mL and a C0 ([1]; male, Sprague-Dawley, rat, iv, 3 mg/kg, IV 3 mg/kg, individual rats, read-out: C0) of 1710 ng/mL. It also gave a half-life ([1]; male, Sprague-Dawley, rat, iv, 3 mg/kg, IV 3 mg/kg, mean n=3) of 2.73 h, a concentration at 0.25 h [1, 5] of 191 ng/mL and a concentration at 0.5 h [1, 5] of 197 ng/mL. It also gave a concentration at 1 h [1, 6] of 109 ng/mL, a concentration at 1 h [1, 5] of 125 ng/mL and a concentration at 2 h [1, 6] of 75.1 ng/mL. It also gave a concentration at 2 h [1, 5] of 66.7 ng/mL, a concentration at 4 h [1, 6] of 66.3 ng/mL and a concentration at 4 h [1, 5] of 51.2 ng/mL. The concentration at 8 h [1, 6] was 68.7 ng/mL, the concentration at 8 h [1, 5] was 49.9 ng/mL and the concentration at 24 h ([1]; male, Sprague-Dawley, rat, po, 10 mg/kg, PO 10 mg/kg, mean (one rat BLOQ), vehicle 20% HP-β-CD in water (POA), read-out: concentration in plasma, Mean) was 0.574 ng/mL. It also gave a solubility at 2 h [2] of under 1000 µg/mL.
